Test results as given in patent publication US8192962B2, “Processes for detecting toxic substances” (Daikin Industries, Ltd., priority 2001, dated 2012).

Test system: Transport facilitation protein genes
Experiment: DNA chip mRNA expression in yeast, transport facilitation protein genes (Table 5)
Assay type: cell-based, Saccharomyces cerevisiae S288C
Outline: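 Value is the scanned fluorescence intensity ratio of exposed versus chemical-free cells. Log-phase S288C yeast in YPD at 25° C. received one toxic substance for two hours, dosed to slow growth without killing; Cy3/Cy5-labeled cDNA from oligo-dT-purified mRNA was hybridized to a whole-genome chip at 65° C.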

Measured: The level of expressed mRNA in the presence of chemical substance/The level of expressed mRNA in the absence of chemical substance

COc1cc(CNC(=O)CCCCC=CC(C)C)ccc1O [(12), 8-methyl-N-vanillyl-6-nonenamide]
1.4: yeast gene YDR345C | yeast gene YHL035C | yeast gene YHR175W
1.7: yeast gene YEL065W | yeast gene YER053C | yeast gene YNL055C
1.0: yeast gene YBL099W | yeast gene YBR132C | yeast gene YBR293W | yeast gene YBR294W | yeast gene YCR024C-A | yeast gene YDL245C | yeast gene YDR270W | yeast gene YDR342C | yeast gene YDR343C | yeast gene YHR092C | yeast gene YIL056W | yeast gene YJR077C | yeast gene YKL016C | yeast gene YKR067W | yeast gene YLR081W | yeast gene YNR072W | yeast gene YOL163W | yeast gene YOR332W
1.3: yeast gene YBR052C | yeast gene YCL038C | yeast gene YCR098C | yeast gene YLL028W
0.9: yeast gene YBL030C | yeast gene YBR127C | yeast gene YBR207W | yeast gene YBR295W | yeast gene YDL128W | yeast gene YDR387C | yeast gene YDR497C | yeast gene YEL027W | yeast gene YFL011W | yeast gene YFL050C | yeast gene YFL055W | yeast gene YGL006W | yeast gene YGR055W | yeast gene YHR094C | yeast gene YIL006W | yeast gene YIL022W | yeast gene YIL088C | yeast gene YJR106W | yeast gene YLR348C | yeast gene YOL119C | yeast gene YOL156W | yeast gene YOR130C | yeast gene YPL265W
0.4: yeast gene YJL212C
0.6: yeast gene YGR138C | yeast gene YGR224W | yeast gene YGR260W
1.2: yeast gene YDL198C | yeast gene YFL054C | yeast gene YGR197C | yeast gene YLR378C
1.8: yeast gene YOR328W
2.4: yeast gene YGL008C | yeast gene YGR281W
0.7: yeast gene YCR037C | yeast gene YDR038C | yeast gene YDR086C | yeast gene YER119C | yeast gene YGL255W | yeast gene YGR191W | yeast gene YHR026W | yeast gene YLL055W | yeast gene YMR162C | yeast gene YMR203W | yeast gene YNL259C | yeast gene YOR270C | yeast gene YOR348C | yeast gene YPR194C
0.5: yeast gene YGR065C | yeast gene YLR295C | yeast gene YML116W | yeast gene YPL036W | yeast gene YPR192W
1.5: yeast gene YKR039W
2.6: yeast gene YHL047C
4.0: yeast gene YOR153W
0.8: yeast gene YBR068C | yeast gene YDL210W | yeast gene YDR039C | yeast gene YGR082W | yeast gene YGR096W | yeast gene YJR121W | yeast gene YMR011W | yeast gene YOR273C | yeast gene YPL134C | yeast gene YPL271W | yeast gene YPR124W
1.1: yeast gene YBR298C | yeast gene YCL025C | yeast gene YDR298C | yeast gene YEL063C | yeast gene YFL041W | yeast gene YGL104C | yeast gene YGL167C | yeast gene YJL219W | yeast gene YKL146W | yeast gene YOR035C | yeast gene YOR316C
2.0: yeast gene YHL040C
1.6: yeast gene YJL034W
